Entries after “also recorded” stand apart in the source; their conditions may differ.
Key:
[1] = system: Human aortic smooth muscle cells (HASMC); assay: Scratch test migration assay; format: cell-based; details: cells exposed directly to 25 ng/mL atRA in media, 24 hr scratch wound, serum starved, vs negative control
Experimental: Human aortic smooth muscle cells (HASMC) (Lonza, Basel, Switzerland) (passage 5) were cultured in SmGM-2 media. All cells were cultured at 37° C. in a humidified incubator containing 5% CO2. HASMCs (seeding density 1×10^4 cells/cm2) were seeded onto TCP surfaces and grown until 90% confluent. Cell culture media was changed every 2 days until confluence after which serum-free SmGM-2 media was used to create a nutrient starved environment for 24 hrs. A vertical scratch was made with a sterile 200 uL pipette tip in the confluent HASMC layer, rinsed with warm PBS, and replaced with 1 mL SmGM-2 media. The underside of the dish was marked near the wound area to aid in identification. Wells were randomly placed into 4 groups which received either a 100 uL dose of eluted material from atRA loaded PBSA or TBSA release study at day 10, a 100 uL dose of 24 ng atRA dissolved in PBS, or a control 100 uL of PBS. A light microscope (Nikon Eclipse TE2000-U) was used to capture images using Image Pro 5.0 software (MediaCybernetics, Bethesda, Md.) of the wound area immediately at day 0 and at various times until the control wound closed at 24 hrs. Wound areas were determined using an automated wound area measurement macro with the ImageJ 1.43r software (NIH, Bethesda, Md.). The measurement of migration was determined by subtracting the cell-free area at day 0 from the cell-free area at 24 hrs. […]

[2] = target: N-form albumin (TRP 213 atRA binding site) (Homo sapiens, UniProt P02768); details: literature estimate (Maiti et al. 2006), TRP 213 site on N-form albumin; cited from earlier work
F-form albumin = F-form albumin (Bos taurus, UniProt P02769); assay: atRA binding by tryptophan fluorescence quenching at 340 nm, BSA at pH 3.5; parameters: species or system bovine; details: pH 3.5, excitation 295 nm
Experimental: (§1) All trans retinoic acid (atRA, 82625, Sigma, St. Louis, 206 MO) was added to solutions of BSA with molar ratio concentrations including 0:1, 0.08:1, 0.1:1, 0.13:1, 0.2:1, 0.4:1, 0.8:1, 1.2:1, 1.6:1, and 2:1 (atRA:BSA). A baseline fluorescence intensity of BSA at pH 7.4 and 3.5 measured at 340 nm with excitation at 295 nm was recorded (n=4 for each molar ratio concentration) as reported in the literature (Maiti et al. Int J Biol Macromol. 2006; 38(3-5):197-202; herein incorporated by reference in its entirety) using the plate reader Tecan Safire II (Tecan, Maennedorf, Switzerland). Then, atRA binding to BSA at pH 7.4 and 3.5 was assessed immediately after the addition of atRA at the different molar ratios. For measuring atRA release from hydrogel disks, a higher molar ratio concentration of 8:1 (atRA:BSA) was used when incorporating atRA into BSA precursor solutions before gelation. Precursor solutions were processed as normal to fabricate atRA-loaded PBSA and TBSA hydrogel disks with a final volume of 0.5 mL. Disks were submerged in 10 mL PBS at 37° C. for atRA release studies. Eluates were collected and replaced at 1, 3, 6, 12, 24, 48, 72, 144, and 240 hour sampling times and fluorescence intensity of atRA at 340 nm and BSA at 280 nm was collected with a NanoDrop™ 2000 C Spectrophotometer (ThermoScientific™, Waltham, Mass.).

N-form albumin = N-form albumin (Bos taurus, UniProt P02769); assay: atRA binding by tryptophan fluorescence quenching at 340 nm, BSA at pH 7.4; parameters: species or system bovine
Experimental: as §1

[3] = In vivo subcutaneous rat model (biocompatibility); parameters: species or system Sprague-Dawley rats; details: 0.5 mL subcutaneous injection
Experimental: Eight female Sprague-Dawley rats (Harlan Laboratories, Inc.) weighing 150-175 g were used for in vivo biocompatibility testing of the BSA gels. Four rats were randomly assigned into two groups for explant time points at 4 days and 4 weeks for evaluation of the acute and chronic inflammatory response. Animals were anesthetized using the inhalant machine Impact 6 (Vetequip Inc., Pleasanton, Calif.). Isofluorane was administered at a concentration of 2% with an oxygen flow rate of 2 L/min. Following anesthesia; the backs of the animals were shaved and then disinfected with […] followed by alcohol and a second […] wipe. Two incisions of approximately 1.5 cm in length were made at the implantation sites and subcutaneous pockets were created by blunt dissection in each location. 20 wt % Albumin hydrogels 184 (both PBSA and TBSA) were fabricated as described in the methods section 2.1 and were cut into disks (h=0.5 cm, r=0.6 cm) using a sterile biopsy punch. In one location, an acid leached 20 wt % PBSA gel disk was implanted into the subcutaneous pocket far from the incision site. At the other incision site, a 20 wt % TBSA gel disk was implanted. A control saline injection and pH 7.4 (20 wt %) BSA solution was injected into the back of the rat in the two remaining implantation sites. […]

N-form albumin, sequence (P02769 25-607): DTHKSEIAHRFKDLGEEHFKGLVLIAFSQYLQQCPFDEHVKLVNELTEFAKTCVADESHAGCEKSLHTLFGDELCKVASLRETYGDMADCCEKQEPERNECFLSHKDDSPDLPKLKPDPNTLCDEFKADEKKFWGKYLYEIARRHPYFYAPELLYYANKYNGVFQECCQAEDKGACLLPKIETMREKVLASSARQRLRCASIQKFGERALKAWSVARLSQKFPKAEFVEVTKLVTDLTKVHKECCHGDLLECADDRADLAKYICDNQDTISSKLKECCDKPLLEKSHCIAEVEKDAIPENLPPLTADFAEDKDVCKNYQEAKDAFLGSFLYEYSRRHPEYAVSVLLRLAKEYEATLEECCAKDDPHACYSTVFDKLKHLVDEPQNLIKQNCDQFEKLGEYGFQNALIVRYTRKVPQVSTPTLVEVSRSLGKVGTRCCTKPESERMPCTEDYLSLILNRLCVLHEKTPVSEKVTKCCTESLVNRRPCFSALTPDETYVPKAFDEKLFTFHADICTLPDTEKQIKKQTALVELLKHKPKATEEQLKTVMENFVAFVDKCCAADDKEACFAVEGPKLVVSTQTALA
F-form albumin, sequence (P02769 25-607): as above
N-form albumin (TRP 213 atRA binding site), sequence (P02768 25-609): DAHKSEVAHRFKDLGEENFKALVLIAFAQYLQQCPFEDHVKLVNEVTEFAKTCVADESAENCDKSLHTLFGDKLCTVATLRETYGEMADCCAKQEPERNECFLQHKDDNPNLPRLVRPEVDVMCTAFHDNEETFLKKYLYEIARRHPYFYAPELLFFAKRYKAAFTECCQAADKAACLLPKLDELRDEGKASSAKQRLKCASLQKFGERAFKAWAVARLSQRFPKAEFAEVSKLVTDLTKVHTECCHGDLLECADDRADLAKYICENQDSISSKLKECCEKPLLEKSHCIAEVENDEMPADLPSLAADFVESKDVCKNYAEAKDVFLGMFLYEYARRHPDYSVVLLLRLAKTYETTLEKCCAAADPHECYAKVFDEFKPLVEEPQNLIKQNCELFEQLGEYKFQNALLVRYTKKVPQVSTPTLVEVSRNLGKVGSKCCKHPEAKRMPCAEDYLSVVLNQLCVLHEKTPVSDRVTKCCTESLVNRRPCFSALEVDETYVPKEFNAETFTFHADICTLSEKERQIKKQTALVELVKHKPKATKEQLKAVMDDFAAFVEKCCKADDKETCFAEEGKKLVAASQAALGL

tryptophan fluorescence signal at 340 nm upon addition of atRA (F-form albumin) | tryptophan fluorescence signal at 340 nm upon addition of atRA (N-form albumin; N-form albumin, pH 7.4, excitation 295 nm) | Compound | HASMC migration [1] | binding energy [2] [kcal/mol] | fluorescence quenching as a fraction of the initial fluorescence signal (N-form albumin; N-form albumin compared with F-form albumin) | inflammatory response ([3]; 4 weeks) | inflammatory response (number of cells in the subcutaneous pocket) ([3]; 4 days, compared to saline control)
rapidly quenched | rapidly quenched | CC1=C(/C=C/C(C)=C/C=C/C(C)=C/C(=O)O)C(C)(C)CCC1 [atRA, All trans retinoic acid] | inhibited; also recorded: significant (p<0.05) reduction in cell migration | -7.58 | greater fluorescence quenching than F-form albumin | – | –
– | – | BSA solution: control 20 wt % bovine serum albumin solution at pH 7.4, injected subcutaneously | – | – | – | decreased significantly | increased general inflammatory response

Reference: patent publication US20160045606A1, “PARTIALLY-DENATURED PROTEIN HYDROGELS” (Northwestern University, priority 2014, published 2016)
